Reference: patent publication US10941157B2, “Pesticidal compositions and uses thereof” (Gilead Apollo, LLC, priority 2015, dated 2021)
Converted amounts (≈) assume the structure as drawn. Like-named read-outs stand apart in the source and are kept apart here.

Columns and labels:
Assay type in all cases: cell-based
[1] = tested on: Diplodia maydis (Dm); assay: In vitro pathogen growth inhibition assay, Dm; settings: Stenocarpella maydis, 48 h
Procedure, shortened: (§1)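 Spores in 17% V8 liquid medium, or 1.5 mm Rs mycelial plugs in ¼ PDB, incubated with compound; final concentration checked by OD600 for precipitation. OD readings at 24 and 48 h, blank-subtracted, plus visual ratings; value is concentration giving ≥90% growth inhibition.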

[2] = tested on: Phytophthora capsici (Pc); assay: In vitro pathogen growth inhibition assay, Pc; settings: 48 h
Procedure, shortened: as §1

[3] = tested on: Botrtyis cinerea (Bc); assay: In vitro pathogen growth inhibition assay, Bc; settings: 48 h
Procedure, shortened: (§2)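 Value reported is the compound concentration reaching ≥90% growth inhibition, from OD readings at 24 and 48 h after blank subtraction, confirmed visually. Inoculum was spores diluted in 17% V8 medium, except Rs, using 1.5 mm mycelial plugs in ¼ PDB; actual compound concentration corrected via OD600.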

[4] = tested on: Fusarium virguliforme (Fv); assay: In vitro pathogen growth inhibition assay, Fv
Procedure, shortened: as §1

[5] = tested on: Rhizoctonia solani (Rs); assay: In vitro pathogen growth inhibition assay, Rs (mycelial plugs); settings: Rhizoctonia solani, 48 h, mycelial plugs
Procedure, shortened: as §1

[6] = tested on: Septoria tritici (St); assay: In vitro pathogen growth inhibition assay, St; settings: Zymoseptoria tritici, 48 h
Procedure, shortened: as §2

[7] = tested on: Fusarium moniliforme (Fm); assay: In vitro pathogen growth inhibition assay, Fm; settings: Fusarium verticillioides
Procedure, shortened: as §2

[8] = tested on: Collectotrichum graminicola (Cg); assay: In vitro pathogen growth inhibition assay, Cg; settings: 48 h
Procedure, shortened: as §2

[9] = ≥90% inhibition, 48 hours vs 2% DMSO control, read-out: Compound Concentration (ppm) sufficient for ≥90% inhibition of growth, Dm
[10] = ≥90% inhibition, 48 hours vs 2% DMSO control, read-out: Compound Concentration (ppm) sufficient for ≥90% inhibition of growth, Pc
[11] = ≥90% inhibition, 48 hours vs 2% DMSO control, read-out: Compound Concentration (ppm) sufficient for ≥90% inhibition of growth, Bc
[12] = ≥90% inhibition, 48 hours vs 2% DMSO control, read-out: Compound Concentration (ppm) sufficient for ≥90% inhibition of growth, Fv
[13] = ≥90% inhibition, 48 hours vs 2% DMSO control, read-out: Compound Concentration (ppm) sufficient for ≥90% inhibition of growth, Rs
[14] = ≥90% inhibition, 48 hours vs 2% DMSO control, read-out: Compound Concentration (ppm) sufficient for ≥90% inhibition of growth, St
[15] = ≥90% inhibition, 48 hours vs 2% DMSO control, read-out: Compound Concentration (ppm) sufficient for ≥90% inhibition of growth, Fm
[16] = ≥90% inhibition, 48 hours vs 2% DMSO control, read-out: Compound Concentration (ppm) sufficient for ≥90% inhibition of growth, Cg
[17] = ≥90% growth inhibition, 48 hours, vs 2% DMSO control, read-out: Compound Concentration (ppm) sufficient for ≥90% inhibition of Dm
[18] = ≥90% growth inhibition, 48 hours, vs 2% DMSO control, read-out: Compound Concentration (ppm) sufficient for ≥90% inhibition of Pc
[19] = ≥90% growth inhibition, 48 hours, vs 2% DMSO control, read-out: Compound Concentration (ppm) sufficient for ≥90% inhibition of Bc
[20] = ≥90% growth inhibition, 48 hours, vs 2% DMSO control, read-out: Compound Concentration (ppm) sufficient for ≥90% inhibition of Fv
[21] = ≥90% growth inhibition, 48 hours, vs 2% DMSO control, read-out: Compound Concentration (ppm) sufficient for ≥90% inhibition of Rs
[22] = ≥90% growth inhibition, 48 hours, vs 2% DMSO control, read-out: Compound Concentration (ppm) sufficient for ≥90% inhibition of St
[23] = ≥90% growth inhibition, 48 hours, vs 2% DMSO control, read-out: Compound Concentration (ppm) sufficient for ≥90% inhibition of Fm
[24] = ≥90% growth inhibition, 48 hours, vs 2% DMSO control, read-out: Compound Concentration (ppm) sufficient for ≥90% inhibition of Cg

COc1ccc(F)cc1[C@H](Cn1c(=O)n(C(C)(C)C(=O)NC(C)C)c(=O)c2c(C)c(-n3cccn3)sc21)OCC(C)(C)O [Compound I-137]
IC90 [1, 9]: ≥ 2 µg/mL | IC90 [2, 10]: ≥ 50 µg/mL | IC90 [3, 11]: 2 µg/mL (≈ 3.25 µM) | IC90 [4, 12]: ≥ 0.4 µg/mL | IC90 [5, 13]: ≥ 2 µg/mL | IC90 [6, 14]: ≥ 10 µg/mL | IC90 [7, 15]: 0.4 µg/mL (≈ 0.65 µM) | IC90 [8, 16]: 2 µg/mL (≈ 3.25 µM)

COc1ccc(F)cc1[C@H](Cn1c(=O)n(C(C)(C)C(=O)N2CCCC2)c(=O)c2c(C)c(-n3cccn3)sc21)OCC(C)(C)O [Compound I-138]
IC90 [1, 9]: ≥ 10 µg/mL | IC90 [2, 10]: > 50 µg/mL | IC90 [3, 11]: 10 µg/mL (≈ 15.9 µM) | IC90 [4, 12]: 10 µg/mL (≈ 15.9 µM) | IC90 [5, 13]: ≥ 2 µg/mL | IC90 [6, 14]: > 50 µg/mL | IC90 [7, 15]: 0.4 µg/mL (≈ 0.637 µM) | IC90 [8, 16]: 10 µg/mL (≈ 15.9 µM)

COc1ccc(F)cc1CCn1c(=O)n(C(C)(C)C(=O)NC(C)C)c(=O)c2c(C)c(-n3nccn3)sc21 [Compound I-296]
IC90 [1, 17]: 10 µg/mL (≈ 18.9 µM) | IC90 [2, 18]: > 50 µg/mL | IC90 [3, 19]: 2 µg/mL (≈ 3.78 µM) | IC90 [4, 20]: 2 µg/mL (≈ 3.78 µM) | IC90 [5, 21]: 2 µg/mL (≈ 3.78 µM) | IC90 [6, 22]: > 50 µg/mL | IC90 [7, 23]: 2 µg/mL (≈ 3.78 µM) | IC90 [8, 24]: 2 µg/mL (≈ 3.78 µM)

COc1ccc(F)cc1[C@H](Cn1c(=O)n(C(C)(C)C(=O)N2CCCC2)c(=O)c2c(C)c(-n3nccn3)sc21)OC[C@@H](C)O [Compound I-167]
IC90 [1, 17]: 2 µg/mL (≈ 3.25 µM) | IC90 [2, 18]: 50 µg/mL (≈ 81.3 µM) | IC90 [3, 19]: 2 µg/mL (≈ 3.25 µM) | IC90 [4, 20]: 2 µg/mL (≈ 3.25 µM) | IC90 [5, 21]: ≥ 0.4 µg/mL | IC90 [6, 22]: > 50 µg/mL | IC90 [7, 23]: ≥ 0.08 µg/mL | IC90 [8, 24]: ≥ 0.4 µg/mL

COc1ccc(F)cc1[C@H](Cn1c(=O)n(C(C)(C)C(=O)N2CCCCC2)c(=O)c2c(C)c(-n3cccn3)sc21)OC1CCOCC1 [Compound I-166]
IC90 [1, 17]: ≥ 2 µg/mL | IC90 [2, 18]: > 50 µg/mL | IC90 [3, 19]: 2 µg/mL (≈ 3.06 µM) | IC90 [4, 20]: 2 µg/mL (≈ 3.06 µM) | IC90 [5, 21]: 10 µg/mL (≈ 15.3 µM) | IC90 [6, 22]: ≥ 50 µg/mL | IC90 [7, 23]: ≥ 0.08 µg/mL | IC90 [8, 24]: 2 µg/mL (≈ 3.06 µM)

COc1ccc(F)cc1[C@H](Cn1c(=O)n(C(C)C(=O)N2CCCC2)c(=O)c2c(C)c(-n3nccn3)sc21)OC(C)C (some centres unmarked) [Compound I-056]
IC90 [1, 9]: 0.08 µg/mL (≈ 0.137 µM) | IC90 [2, 10]: 30 µg/mL (≈ 51.3 µM) | IC90 [3, 11]: 0.4 µg/mL (≈ 0.684 µM) | IC90 [4, 12]: 0.24 µg/mL (≈ 0.41 µM) | IC90 [5, 13]: 0.24 µg/mL (≈ 0.41 µM) | IC90 [6, 14]: 26 µg/mL (≈ 44.5 µM) | IC90 [7, 15]: 0.08 µg/mL (≈ 0.137 µM) | IC90 [8, 16]: 0.08 µg/mL (≈ 0.137 µM)

CCOC(=O)c1sc2c(c1C)c(=O)n(C(C)(C)C(=O)NC(C)C)c(=O)n2CCc1cc(F)ccc1OC [Compound I-298]
IC90 [1, 17]: ≥ 10 µg/mL | IC90 [2, 18]: > 50 µg/mL | IC90 [3, 19]: 2 µg/mL (≈ 3.75 µM) | IC90 [4, 20]: 2 µg/mL (≈ 3.75 µM) | IC90 [5, 21]: > 50 µg/mL | IC90 [6, 22]: > 50 µg/mL | IC90 [7, 23]: 2 µg/mL (≈ 3.75 µM) | IC90 [8, 24]: 10 µg/mL (≈ 18.7 µM)

COc1ccccc1[C@H](Cn1c(=O)n(C(C)(C)C(=O)NC2CCCCC2)c(=O)c2c(C)c(-n3nccn3)sc21)OC1CCOCC1 [Compound I-043]
IC90 [1, 9]: 0.4 µg/mL (≈ 0.615 µM) | IC90 [2, 10]: > 10 µg/mL | IC90 [3, 11]: 0.4 µg/mL (≈ 0.615 µM) | IC90 [4, 12]: 2 µg/mL (≈ 3.07 µM) | IC90 [5, 13]: 0.4 µg/mL (≈ 0.615 µM) | IC90 [6, 14]: > 10 µg/mL | IC90 [7, 15]: 0.08 µg/mL (≈ 0.123 µM) | IC90 [8, 16]: > 2 µg/mL

Cc1c(-n2nccn2)sc2c1c(=O)n(C(C)(C)C(=O)NC(C)C)c(=O)n2CCc1cc(F)ccc1OCCC#N [Compound I-340]
IC90 [1, 17]: 50 µg/mL (≈ 88.1 µM) | IC90 [2, 18]: > 50 µg/mL | IC90 [3, 19]: 10 µg/mL (≈ 17.6 µM) | IC90 [4, 20]: 2 µg/mL (≈ 3.52 µM) | IC90 [5, 21]: 50 µg/mL (≈ 88.1 µM) | IC90 [6, 22]: > 50 µg/mL | IC90 [7, 23]: 2 µg/mL (≈ 3.52 µM) | IC90 [8, 24]: 50 µg/mL (≈ 88.1 µM)

COc1ccc(F)cc1[C@H](Cn1c(=O)n(C(C)(C)C(=O)N2CCCCC2)c(=O)c2c(C)c(-n3cccn3)sc21)OC(C)C [Compound I-002]
IC90 [1, 9]: 0.4 µg/mL (≈ 0.654 µM) | IC90 [2, 10]: > 50 µg/mL | IC90 [3, 11]: 0.4 µg/mL (≈ 0.654 µM) | IC90 [4, 12]: 0.4 µg/mL (≈ 0.654 µM) | IC90 [5, 13]: 0.4 µg/mL (≈ 0.654 µM) | IC90 [6, 14]: > 10 µg/mL | IC90 [7, 15]: 0.08 µg/mL (≈ 0.131 µM) | IC90 [8, 16]: 2 µg/mL (≈ 3.27 µM)
